This note sets out measurements from patent US6875760B2 (Novo Nordisk A/S, priority 1999, dated 2005).

The test has as its target T1, cloned human glucagon receptor (Homo sapiens, UniProt P47871).
T1 construct: expressed in transfected cells; plasma membrane preparation
In words: Glucagon Binding Assay (II). The conditions noted are these: for inhibition at 1 µM: screened at 1 μM, library compounds, read-out: displacement of the glucagon tracer when screened at 1 μM concentration in the glucagon binding assay II; for IC50: plasma membranes of BHK cells expressing the receptor, read-out: Glu Bd Assay (II) IC50. Here is the method: Binding of compounds to the glucagon receptor was determined in a competition binding assay using the cloned human glucagon receptor.
The receptor inserted in the pLJ6′ expression vector using EcoRI/SSt1 restriction sites (Lok et al.) was expressed in a baby hamster kidney cell line (A3 BHK 570-25).
The homogenate was resuspended and centrifuged again. The final precipitate containing the plasma membranes was suspended in buffer and stored at −80° C. until use.
Binding assays were carried out in duplicate in polypropylene tubes or microtiter plates. The buffer used in this assay was 50 mM HEPES pH 7.4 containing 5 mM EGTA, 5 mM MgCl2 and 0.005% Tween 20. Sample (glucagon (Bachem CA) or test compounds) was added to each tube or well. Tracer (˜25.000 cpm) was diluted in buffer and was added to each tube or well. 0.5 mg freshly thawed plasma membrane protein diluted in buffer was then added in aliquots to each tube or well. Tubes or plates were incubated at 37° C. for 1 hour. Non-specific binding was determined with 10^−7 M of glucagon. Bound tracer and unbound tracer were then separated by vacuum filtration. The tubes or wells were washed twice with 0.01% Triton X-100 buffer. Scintillation fluid was added to the plates and radioactivity was quantified using a scintillation counter.

T1 sequence (P47871 26-477): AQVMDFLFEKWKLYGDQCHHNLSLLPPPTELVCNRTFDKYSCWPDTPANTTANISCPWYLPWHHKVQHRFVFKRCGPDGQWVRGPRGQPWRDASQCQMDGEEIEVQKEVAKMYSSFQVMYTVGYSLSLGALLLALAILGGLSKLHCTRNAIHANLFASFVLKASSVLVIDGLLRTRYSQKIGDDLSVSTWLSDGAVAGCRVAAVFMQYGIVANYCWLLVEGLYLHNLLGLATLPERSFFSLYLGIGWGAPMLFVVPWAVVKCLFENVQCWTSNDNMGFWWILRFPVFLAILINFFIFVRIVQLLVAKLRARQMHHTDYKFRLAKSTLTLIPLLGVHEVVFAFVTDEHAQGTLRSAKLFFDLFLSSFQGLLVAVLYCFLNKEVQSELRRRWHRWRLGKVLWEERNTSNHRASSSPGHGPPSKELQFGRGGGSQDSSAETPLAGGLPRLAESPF

Consider `O=C(O)CCNC(=O)c1ccc(CN(Cc2ccccc2OC(F)(F)F)C(=O)Nc2ccc(SC(F)(F)F)cc2)s1` [Example 126, 3-{5-[1-(2-Trifluoromethoxybenzyl)-3-(4-trifluoromethylsulfanylphenyl)ureidomethyl]thiophene-2-carbonylamino)propionic acid], for which the inhibition at 1 µM was more than 50%.

Turning to `CC(C)(C)c1ccc(CN(Cc2ccc(C(=O)NCCC(=O)O)s2)C(=O)Nc2ccc3ccccc3c2)cc1` [Example 127, 3-{5-[1-(4-tert-Butylbenzyl)-3-naphthalene-2-ylureidomethyl]thiophene-2-carbonylamino)propionic acid], the inhibition at 1 µM is more than 50%.

`O=C(O)CCNC(=O)c1ccc(CN(Cc2ccc(C(F)(F)F)cc2)C(=O)Nc2ccc3ccccc3c2)s1` [Example 128, 3-{5-[1-(4-Trifluoromethylbenzyl)-3-naphthalene-2-ylureidomethyl]thiophene-2-carbonylamino)propionic acid]: the inhibition at 1 µM is more than 50%.

In the case of `CCCCOc1ccc(NC(=O)N(Cc2ccc(C(C)(C)C)cc2)Cc2ccc(C(=O)NCCC(=O)O)s2)cc1` [Example 129, 3-{5-[1-(4-tert-Butylbenzyl)-3-(4-butoxyphenyl)ureidomethyl]thiophene-2-carbonylamino)propionic acid], the inhibition at 1 µM was more than 50%.

For `CC(C)(C)c1ccc(CN(Cc2ccc(C(=O)NCCC(=O)O)s2)C(=O)Nc2ccc(SC(F)(F)F)cc2)cc1` [Example 130, 3-{5-[1-(4-tert-Butylbenzyl)-3-(4-trifluoromethylsulfanylphenyl)ureidomethyl]thiophene-2-carbonylamino)propionic acid], the inhibition at 1 µM is more than 50%.

On to `O=C(O)CCNC(=O)c1ccc(CN(Cc2ccc(C(F)(F)F)cc2)C(=O)Nc2ccc(SC(F)(F)F)cc2)s1` [Example 131, 3-{5-[1-(4-Trifluoromethylbenzyl)-3-(4-trifluoromethylsulfanylphenyl)ureidomethyl]thiophene-2-carbonylamino)propionic acid], for which the inhibition at 1 µM was more than 50%.

For `CC(C)(C)C1CCC(N(Cc2ccc(C(=O)NCCC(=O)O)cc2)C(=O)NC2CC2c2ccccc2)CC1` (stereo not drawn) [Example 132, 3-{4-[1-(4-tert-Butylcyclohexyl)-3-(2-phenylcyclopropyl)ureidomethyl]benzoylamino)propionic acid], the inhibition at 1 µM was more than 50%.

For the compound `CC(C)(C)C1CCC(N(Cc2ccc(C(=O)NCCC(=O)O)cc2)C(=O)Nc2ccc(Br)cc2)CC1` (stereo not drawn) [Example 133, 3-{4-[3-(4-Bromophenyl)-1-(4-tert-butylcyclohexyl)ureidomethyl]benzoylamino)propionic acid], the inhibition at 1 µM is more than 50%.

On to `CC(C)(C)C1CCC(N(Cc2cccc(C(=O)NCCC(=O)O)c2)C(=O)Nc2ccc(OC(F)(F)F)cc2)CC1` (stereo not drawn) [Example 134, 3-{3-[1-(4-tert-Butylcyclohexyl)-3-(4-trifluoromethoxyphenyl)ureidomethyl]benzoylamino)propionic acid], for which the inhibition at 1 µM was more than 50%.

Take `CC(C)(C)C1CCC(N(Cc2cccc(C(=O)NCCC(=O)O)c2)C(=O)Nc2cc(Cl)cc(Cl)c2)CC1` (stereo not drawn) [Example 135, 3-{3-[1-(4-tert-Butylcyclohexyl)-3-(3,5-dichlorophenyl)ureidomethyl]benzoylamino)propionic acid]: the inhibition at 1 µM is more than 50%.

For the compound `O=C(O)CCNC(=O)c1ccc(CN(C(=O)Nc2ccc(OC(F)(F)F)cc2)C2Cc3ccccc3C2)cc1` [Example 137, 3-{4-[1-(1-Indan-2-yl)-3-(4-trifluoromethoxyphenyl)ureidomethyl]benzoylamino)propionic acid], the half-inhibitory concentration (IC50) was 360 nM.

With `O=C(O)CCNC(=O)c1ccc(CN(C(=O)Nc2cc(Cl)cc(Cl)c2)C2Cc3ccccc3C2)cc1` [Example 138, 3-{4-[1-Indan-2-yl-3-(3,5-dichlorophenyl)ureidomethyl]benzoylamino}propionic acid], the IC50 worked out at 637 nM.
